From patent US20240400553A1, “AMINE BASED MATRIPTASE 2 INHIBITORS AND USES THEREOF” (Disc Medicine, Inc., priority 2023, published 2024)

target: T1, Human Recombinant Matriptase 2 (Homo sapiens, UniProt Q8IU80); assay: Matriptase 2 inhibition, fluorescence based assay (Method I); assay type: biochemical; conditions: Table A; Ki of Matriptase-2; read-out: Mat-2 Ki
T1 construct: made in house
T1 sequence (Q8IU80 1-811): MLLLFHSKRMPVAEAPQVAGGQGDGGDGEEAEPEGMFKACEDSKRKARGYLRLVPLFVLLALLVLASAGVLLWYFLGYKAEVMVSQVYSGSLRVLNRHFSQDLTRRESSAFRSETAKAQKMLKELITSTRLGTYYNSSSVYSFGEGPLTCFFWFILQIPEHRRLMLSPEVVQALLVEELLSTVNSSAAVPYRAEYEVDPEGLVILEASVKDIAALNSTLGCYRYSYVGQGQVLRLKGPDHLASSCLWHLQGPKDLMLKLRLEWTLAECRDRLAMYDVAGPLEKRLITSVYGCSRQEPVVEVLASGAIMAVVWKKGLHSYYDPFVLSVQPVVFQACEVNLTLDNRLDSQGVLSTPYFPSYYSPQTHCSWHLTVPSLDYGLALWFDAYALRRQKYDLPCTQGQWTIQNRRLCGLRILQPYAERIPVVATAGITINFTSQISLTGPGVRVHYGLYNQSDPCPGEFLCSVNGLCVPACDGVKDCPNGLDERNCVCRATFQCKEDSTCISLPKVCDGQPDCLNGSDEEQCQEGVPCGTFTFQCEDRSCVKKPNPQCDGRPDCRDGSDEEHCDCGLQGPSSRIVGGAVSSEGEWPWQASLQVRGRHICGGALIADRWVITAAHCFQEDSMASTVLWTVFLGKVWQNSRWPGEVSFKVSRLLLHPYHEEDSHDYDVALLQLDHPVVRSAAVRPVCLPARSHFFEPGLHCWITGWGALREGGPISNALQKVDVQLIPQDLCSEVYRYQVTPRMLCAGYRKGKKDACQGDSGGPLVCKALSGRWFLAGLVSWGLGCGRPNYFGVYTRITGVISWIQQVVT
Outline: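 Fluorogenic readout (Ex 360/Em 480 nm) taken 60 min after adding 62 μM Boc-Gln-Ala-Arg-AMC, following 30-min enzyme–compound preincubation at 25 °C. Conditions: 3.5 nM in-house enzyme, pH 7.5 Tris/NaCl/gelatin buffer, 1% DMSO; percent inhibition versus concentration fitted by variable-slope sigmoidal regression.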

| SMILES | Ki |
| --- | --- |
| CN1CCC(COC(=O)c2cc3ccc(CN)nc3n2Cc2cc(NS(=O)(=O)CC[C@@H]3CCCN3)cc3ccccc23)CC1 [Compound 2] | 500 to 3000 nM |
| CNC(=O)c1cc2ccc(CN)nc2n1Cc1cc(NS(=O)(=O)CC[C@@H]2CCCN2)cc2ccccc12 [Compound 3] | 100 to 500 nM |
| NCc1ccc2cc(C(=O)O)n(Cc3cc(NS(=O)(=O)Cc4ccsc4)cc4ccccc34)c2n1 [Compound 4] | ≤ 100 nM |
| CN1CCC(COC(=O)c2cc3ccc(CN)nc3n2Cc2cc(NS(=O)(=O)Cc3ccsc3)cc3ccccc23)CC1 [Compound 5] | ≤ 100 nM |
| CN1CCC(CNC(=O)c2cc3ccc(CN)nc3n2Cc2cc(NS(=O)(=O)Cc3ccsc3)cc3ccccc23)CC1 [Compound 6, 6-(aminomethyl)-N-((1-methylpiperidin-4-yl)methyl)-1-((3-((thiophen-3-ylmethyl)sulfonamido)naphthalen-1-yl)methyl)-1H-pyrrolo[2,3-b]pyridine-2-carboxamide] | ≤ 100 nM |
| NCc1ccc2cc(C(=O)OCCCCN3CCOCC3)n(Cc3cc(NS(=O)(=O)Cc4ccccc4)cc4ccccc34)c2n1 [Compound 7, 4-morpholinobutyl 6-(aminomethyl)-1-((3-((phenylmethyl)sulfonamido)naphthalen-1-yl)methyl)-1H-pyrrolo[2,3-b]pyridine-2-carboxylate] | ≤ 100 nM |
| NCc1ccc2cc(C(=O)OCC3CCNCC3)n(Cc3cc(NS(=O)(=O)Cc4ccccc4)cc4ccccc34)c2n1 [Compound 9, (piperidin-4-yl)methyl 6-(aminomethyl)-1-{[3-(phenylmethanesulfon-amido)naphthalen-1-yl]-methyl}-1H-pyrrolo[2,3-b]pyridine-2-carboxylate] | ≤ 100 nM |
| CN1CCC(C)(COC(=O)c2cc3ccc(CN)nc3n2Cc2cc(NS(=O)(=O)Cc3ccccc3)cc3ccccc23)CC1 [Compound 10, (1,4-dimethylpiperidin-4-yl)methyl 6-(amino-methyl)-1-{[3-(phenyl-methanesulfonamido)-naphthalen-1-yl]meth-yl}-1H-pyrrolo[2,3-b]-pyridine-2-carboxylate] | ≤ 100 nM |
| CN1CCC(CNC(=O)c2cc3ccc(CN)nc3n2Cc2cc(NS(=O)(=O)Cc3ccccc3)cc3ccccc23)CC1 [Compound 12, 6-(aminomethyl)-N-[(1-methylpiperidin-4-yl)-methyl]-1-{[3-(phenyl-methanesulfonamido)-naphthalen-1-yl]meth-yl}-1H-pyrrolo[2,3-b]-pyridine-2-carboxamide] | ≤ 100 nM |
| CCN1CCC(COC(=O)c2cc3ccc(CN)nc3n2Cc2cc(NS(=O)(=O)Cc3ccccc3)cc3ccccc23)CC1 [Compound 13, (1-ethylpiperidin-4-yl)-methyl 6-(aminomethyl)-1-{[3-(phenylmethane-sulfonamido)naphthalen-1-yl]methyl}-1H-pyr-rolo[2,3-b]pyridine-2-carboxylate] | ≤ 100 nM |
| CC(C)N1CCC(CNC(=O)c2cc3ccc(CN)nc3n2Cc2cc(NS(=O)(=O)Cc3ccccc3)cc3ccccc23)CC1 [Compound 14, 6-(aminomethyl)-1-{[3-(phenylmethanesulfon-amido)naphthalen-1-yl]-methyl}-N-{[1-(propan-2-yl)piperidin-4-yl]-methyl}-1H-pyrrolo-[2,3-b]pyridine-2-car-boxamide] | ≤ 100 nM |
| CC(C)N1CCC(COC(=O)c2cc3ccc(CN)nc3n2Cc2cc(NS(=O)(=O)Cc3ccccc3)cc3ccccc23)CC1 [Compound 15] | ≤ 100 nM |
| CC(C)N1CCC(OC(=O)c2cc3ccc(CN)nc3n2Cc2cc(NS(=O)(=O)Cc3ccccc3)cc3ccccc23)CC1 [Compound 16, 1-(propan-2-yl)piperidin-4-yl 6-(aminomethyl)-1-{[3-(phenylmethane-sulfonamido)naphthalen-1-yl]methyl}-1H-pyr-rolo[2,3-b]pyridine-2-carboxylate] | ≤ 100 nM |
| CN1CCC(COC(=O)c2cc3ccc(CN)nc3n2Cc2cc(NS(=O)(=O)Cc3ccccc3)cc3ccccc23)CC1 [Compound 17, (1-methylpiperidin-4-yl)methyl 6-(amino-methyl)-1-{[3-(phenyl-methanesulfonamido)-naphthalen-1-yl]methyl}-1H-pyrrolo[2,3-b]pyr-idine-2-carboxylate] | ≤ 100 nM |
| CN1CCC(OC(=O)c2cc3ccc(CN)nc3n2Cc2cc(NS(=O)(=O)Cc3ccccc3)cc3ccccc23)CC1 [Compound 18, 1-methylpiperidin-4-yl 6-(aminomethyl)-1-{[3-(phenylmethanesulfon-amido)naphthalen-1-yl]-methyl}-1H-pyrrolo[2,3-b]pyridine-2-carboxylate] | ≤ 100 nM |
| NCc1ccc2cc(C(=O)OCC34CCN(CC3)CC4)n(Cc3cc(NS(=O)(=O)Cc4ccccc4)cc4ccccc34)c2n1 [Compound 19, {1-azabicyclo[2.2.2]-octan-4-yl}methyl 6-(aminomethyl)-1-{[3-(phenylmethanesulfon-amido)naphthalen-1-yl]-methyl}-1H-pyrrolo[2,3-b]pyridine-2-carboxylate] | ≤ 100 nM |
| Cn1cncc1COC(=O)c1cc2ccc(CN)nc2n1Cc1cc(NS(=O)(=O)Cc2ccccc2)cc2ccccc12 [Compound 20, (1-methyl-1H-imidazol-5-yl)methyl 6-(amino-methyl)-1-{[3-(phenyl-methanesulfonamido)-naphthalen-1-yl]methyl}-1H-pyrrolo[2,3-b]pyr-idine-2-carboxylate] | ≤ 100 nM |
| NCc1ccc2cc(C(=O)OCC3CCN(CC4CC4)CC3)n(Cc3cc(NS(=O)(=O)Cc4ccccc4)cc4ccccc34)c2n1 [Compound 21, [1-(cyclopropylmeth-yl)piperidin-4-yl]methyl 6-(aminomethyl)-1-{[3-(phenylmethanesulfon-amido)naphthalen-1-yl]-methyl}-1H-pyrrolo[2,3-b]pyridine-2-carboxylate] | ≤ 100 nM |
| NCc1ccc2cc(C(=O)OC[C@H]3COCCN3)n(Cc3cc(NS(=O)(=O)Cc4ccccc4)cc4ccccc34)c2n1 [Compound 22, [(3R)-morpholin-3-yl]-methyl 6-(aminomethyl)-1-{[3-(phenylmethane-sulfonamido)naphthalen-1-yl]methyl}-1H-pyr-rolo[2,3-b]pyridine-2-carboxylate] | ≤ 100 nM |
| CN(C)CCCCOC(=O)c1cc2ccc(CN)nc2n1Cc1cc(NS(=O)(=O)Cc2ccccc2)cc2ccccc12 [Compound 25, 4-(dimethylamino)butyl 6-(aminomethyl)-1-{[3-(phenylmethanesulfon-amido)naphthalen-1-yl]-methyl}-1H-pyrrolo[2,3-b]pyridine-2-carboxylate] | ≤ 100 nM |

same assay, conditions: Table B; Human Recombinant Matriptase 2, 3.5 nM enzyme, 62 μM substrate, 30 mins preincubation; read-out: Mean Ki

| SMILES | Ki |
| --- | --- |
| CNC12CC(COC(=O)c3cc4ccc(CN)nc4n3Cc3cc(NS(=O)(=O)Cc4c(C)cccc4C)cc4ccccc34)(C1)C2 [Compound 2.34] | ≤ 100 nM |
| NCc1ccc2cc(C(=O)Nc3ccc(N)cc3)n(Cc3cc(NS(=O)(=O)Cc4ccccc4)cc4ccccc34)c2n1 [Compound 2.35] | 100 to 500 nM |
| CN(C)c1ccc(NC(=O)c2cc3ccc(CN)nc3n2Cc2cc(NS(=O)(=O)Cc3ccccc3)cc3ccccc23)cc1 [Compound 2.36] | 100 to 500 nM |
| CN1CCC(COC(=O)c2cc3ccc(CN)nc3n2CC(NS(=O)(=O)Cc2ccccc2)c2ccccc2)CC1 (stereo not shown) [Compound 2.37] | > 3000 nM |
| CNC12CC(COC(=O)c3cc4ccc(CN)nc4n3Cc3cc(NS(=O)(=O)Cc4c(C)cccc4C)cc4c3CCCC4)(C1)C2 [Compound 2.38] | ≤ 100 nM |
| CN1CCC(COC(=O)c2cc3ccc(CN)nc3n2Cc2cccn3ccnc23)CC1 [Compound 2.39] | > 3000 nM |
| CN(C)C12CC(COC(=O)c3cc4ccc(CN)nc4n3Cc3cc(NS(=O)(=O)Cc4ccccc4)cc4ccccc34)(C1)C2 [Compound 2.40] | ≤ 100 nM |
| CNC12CC(COC(=O)c3cc4ccc(CN)nc4n3Cc3cc(NS(=O)(=O)Cc4ccccc4)cc4ccccc34)(C1)C2 [Compound 2.41] | ≤ 100 nM |
| Cc1cccc(C)c1CS(=O)(=O)Nc1cc2c(c(Cn3c(C(=O)OCc4cncn4C(C)(C)C)cc4ccc(CN)nc43)c1)CCCC2 [Compound 2.42] | 100 to 500 nM |
| Cc1cccc(C)c1CS(=O)(=O)Nc1cc2c(c(Cn3c(C(=O)OCC4CCN(C)CC4)cc4ccc(CN)nc43)c1)CCCC2 [Compound 2.43] | ≤ 100 nM |
| Cc1cccc(C)c1CS(=O)(=O)Nc1cc2c(c(Cn3c(C(=O)OCc4nccn4C)cc4ccc(CN)nc43)c1)CCCC2 [Compound 2.44] | 100 to 500 nM |
| CN1CCC(COC(=O)c2cc3ccc(CN)nc3n2Cc2cc(NS(=O)(=O)Cc3ccccc3)cs2)CC1 [Compound 2.45] | > 3000 nM |
| CN1CCC(COC(=O)c2cc3ccc(CN)nc3n2Cc2cccc3cnccc23)CC1 [Compound 2.46] | > 3000 nM |
| CN1CCC(COC(=O)c2cc3ccc(CN)nc3n2Cc2cccc(NS(=O)(=O)Cc3ccccc3)c2)CC1 [Compound 2.48] | 100 to 500 nM |
